One assay concerns the target human recombinant BACE2 (Homo sapiens (Human), UniProt Q9Y5Z0). As to the kind of experiment: In vitro enzymatic BACE2 FRET assay. The format is biochemical. As to conditions: read-out: IC50 IP (μM) BACE2 enzyme. Summed up:
(§1)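 Reactions were initiated by adding 50 nM of a peptide carrying fluorophore and quencher on opposite sides of the cleavage site and ran for one hour. Tris buffer then brought the pH to neutrality, ending the reaction, and fluorescence was measured (488 nm excitation, 590 nm emission).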

In assay [1] the test system is Aβ40 in conditioned medium of cells stably expressing Amyloid Precursor Protein (APP). The experiment in a line: In vitro BACE-1 cell-based assay (Aβ40 sandwich ELISA). As to conditions: read-out: IC50 IP (μM) BACE1 cell. The gist of the method:
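Aβ40 in supernatants measured by time-resolved fluorescence sandwich ELISA, with pAb40 as capture and biotin-6E10 as detector antibody, each incubated at 4 °C.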
Background: In an ELISA, binding on a coated surface is turned into a signal by an enzyme label.

The target of another assay is human recombinant BACE1 (Homo sapiens (Human), UniProt P56817). The experiment in a line: In vitro enzymatic BACE1 FRET assay. As to conditions: read-out: IC50 IP (μM) BACE1 enzyme. The format is biochemical. The gist of the method: as §1
human recombinant BACE1, sequence (P56817 46-501): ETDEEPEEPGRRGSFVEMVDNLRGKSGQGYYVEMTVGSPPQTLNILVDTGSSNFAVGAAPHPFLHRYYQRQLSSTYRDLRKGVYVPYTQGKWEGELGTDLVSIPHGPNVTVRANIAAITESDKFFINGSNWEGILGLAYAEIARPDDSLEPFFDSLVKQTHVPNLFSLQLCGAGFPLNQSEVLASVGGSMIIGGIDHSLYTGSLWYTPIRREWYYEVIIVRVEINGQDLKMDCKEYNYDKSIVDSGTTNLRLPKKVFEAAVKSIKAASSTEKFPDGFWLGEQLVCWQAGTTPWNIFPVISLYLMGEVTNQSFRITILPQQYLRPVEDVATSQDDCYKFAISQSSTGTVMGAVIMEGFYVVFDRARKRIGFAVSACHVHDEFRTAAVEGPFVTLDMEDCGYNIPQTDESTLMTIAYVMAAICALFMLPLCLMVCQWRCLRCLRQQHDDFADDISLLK
The target of the next assay is Recombinant Cat D (Homo sapiens (Human), UniProt P07339). The experiment in a line: In vitro enzymatic Cathepsin D (Cat D) FRET assay. The format is biochemical. The conditions noted are these: read-out: IC50 IP (μM) CatD. The gist of the method: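 Fluorescence at 500 nm excitation and 580 nm emission reports cleavage of a quenched fluorophore–quencher peptide (20 nM) by CHO-expressed Cat D. Reactions ran one hour in 0.05 M citrate pH 3.5, 5 mM CHAPS, 10% DMSO final before a Tris stop raised pH to neutrality.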
Recombinant Cat D, sequence (P07339 65-412): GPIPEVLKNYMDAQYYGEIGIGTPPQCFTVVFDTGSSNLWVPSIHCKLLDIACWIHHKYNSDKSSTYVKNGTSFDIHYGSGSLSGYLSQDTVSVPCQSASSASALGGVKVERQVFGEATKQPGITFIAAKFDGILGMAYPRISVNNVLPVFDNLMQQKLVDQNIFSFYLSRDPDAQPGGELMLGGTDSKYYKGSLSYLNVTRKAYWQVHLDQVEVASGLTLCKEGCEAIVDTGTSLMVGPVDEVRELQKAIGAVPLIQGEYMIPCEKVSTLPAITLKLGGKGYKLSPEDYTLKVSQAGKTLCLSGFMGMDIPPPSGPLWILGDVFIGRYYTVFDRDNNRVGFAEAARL

human recombinant BACE2, sequence (Q9Y5Z0 63-518): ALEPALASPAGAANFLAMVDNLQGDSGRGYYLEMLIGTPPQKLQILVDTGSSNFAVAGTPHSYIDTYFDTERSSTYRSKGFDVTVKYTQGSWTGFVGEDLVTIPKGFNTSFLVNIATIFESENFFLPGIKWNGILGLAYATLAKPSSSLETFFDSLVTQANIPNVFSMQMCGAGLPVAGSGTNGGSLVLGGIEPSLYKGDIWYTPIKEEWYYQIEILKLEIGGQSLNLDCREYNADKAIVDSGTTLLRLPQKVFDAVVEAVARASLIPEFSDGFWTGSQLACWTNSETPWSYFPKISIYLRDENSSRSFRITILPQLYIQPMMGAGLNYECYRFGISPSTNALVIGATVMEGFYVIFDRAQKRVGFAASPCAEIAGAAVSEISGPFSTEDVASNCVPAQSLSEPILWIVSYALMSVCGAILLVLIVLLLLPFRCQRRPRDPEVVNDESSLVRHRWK

`Cc1nc(OCc2ncco2)cnc1C(=O)Nc1ccc(F)c([C@@]2(C)N=C(N)S[C@@]3(CF)C[C@H]32)c1` [Example 837, N-(3-((1S,5S,6S)-3-amino-1-(fluoromethyl)-5-methyl-2-thia-4-azabicyclo[4.1.0]hept-3-en-5-yl)-4-fluorophenyl)-3-methyl-5-(1,3-oxazol-2-ylmethoxy)-2-pyrazinecarboxamide]: the 50% inhibitory concentration (IC50) (usually the concentration needed to halve the response being measured) at human recombinant BACE2 was determined as 0.0259 µM; in assay [1], 0.00325 µM; on human recombinant BACE1 it was 0.00253 µM; at Recombinant Cat D, 1070 µM.
The like results for `COC[C@]12C[C@H]1[C@@](C)(c1cc(Nc3ncnc4cc(Cl)cnc34)cnc1F)N=C(N)S2` [Example 844, (1S,5S,6S)-5-(5-((7-chloropyrido[3,2-d]pyrimidin-4-yl)amino)-2-fluoropyridin-3-yl)-1-(methoxymethyl)-5-methyl-2-thia-4-azabicyclo[4.1.0]hept-3-en-3-amine] were, in that order, 0.0108 µM, 0.0145 µM, 0.0219 µM and 1780 µM.
Take `C#CCOc1cnc(C(=O)Nc2cnc(F)c([C@@]3(C)N=C(N)S[C@@]4(COC)C[C@H]43)c2)c(C)n1` [Example 845, N-(5-((1S,5S,6S)-3-amino-1-(methoxymethyl)-5-methyl-2-thia-4-azabicyclo[4.1.0]hept-3-en-5-yl)-6-fluoro-3-pyridinyl)-3-methyl-5-(2-propyn-1-yloxy)-2-pyrazinecarboxamide]: the IC50 at human recombinant BACE2 was found to be 0.0257 µM; in assay [1] it was 0.00473 µM; at human recombinant BACE1 it was 0.0026 µM; on Recombinant Cat D, 1710 µM.
With `COC[C@]12C[C@H]1[C@@](C)(c1cc(Nc3ncnc4cc(C#N)cnc34)cnc1F)N=C(N)S2` [Example 846, 4-((5-((1S,5S,6S)-3-amino-1-(methoxymethyl)-5-methyl-2-thia-4-azabicyclo[4.1.0]hept-3-en-5-yl)-6-fluoro-3-pyridinyl)amino)pyrido[3,2-d]pyrimidine-7-carbonitrile], the IC50 was 0.0494 µM on human recombinant BACE2, 0.0111 µM in assay [1], 0.0282 µM on human recombinant BACE1 and above 400 µM on Recombinant Cat D.
The matching figures for `COC[C@]12C[C@H]1[C@@](C)(c1cc(Nc3nccc4cc(C#N)cnc34)cnc1F)N=C(N)S2` [Example 847, 8-((5-((1S,5S,6S)-3-amino-1-(methoxymethyl)-5-methyl-2-thia-4-azabicyclo[4.1.0]hept-3-en-5-yl)-6-fluoro-3-pyridinyl)amino)-1,7-naphthyridine-3-carbonitrile]: 0.00955 µM, 0.00675 µM, 0.0113 µM and 1910 µM.
The like results for `C#CCOc1cnc2c(Nc3cnc(F)c([C@@]4(C)N=C(N)S[C@@]5(COC)C[C@H]54)c3)nccc2n1` [Example 848, N-(5-((1S,5S,6S)-3-amino-1-(methoxymethyl)-5-methyl-2-thia-4-azabicyclo[4.1.0]hept-3-en-5-yl)-6-fluoro-3-pyridinyl)-2-(2-propyn-1-yloxy)pyrido[3,4-b]pyrazin-5-amine] were, in that order, 0.0335 µM, 0.00134 µM, 0.00136 µM and 773 µM.
The matching figures for `COC[C@]12C[C@H]1[C@@](C)(c1cc(Nc3nccc4nc(OCc5ncco5)cnc34)cnc1F)N=C(N)S2` [Example 849, N-(5-((1S,5S,6S)-3-amino-1-(methoxymethyl)-5-methyl-2-thia-4-azabicyclo[4.1.0]hept-3-en-5-yl)-6-fluoro-3-pyridinyl)-2-(1,3-oxazol-2-ylmethoxy)pyrido[3,4-b]pyrazin-5-amine]: 0.0463 µM, 0.0017 µM, 0.00343 µM and 1530 µM.
As to `[2H]C([2H])([2H])OC[C@]12C[C@H]1[C@@](C)(c1cc(NC(=O)c3ncc(OCC#C)nc3C)cnc1F)N=C(N)S2` [Example 850, N-(5-((1S,5S,6S)-3-amino-5-methyl-1-(((~2~H_3_)methyloxy)methyl)-2-thia-4-azabicyclo[4.1.0]hept-3-en-5-yl)-6-fluoro-3-pyridinyl)-3-methyl-5-(2-propyn-1-yloxy)-2-pyrazinecarboxamide], the IC50 amounted to 0.00886 µM at human recombinant BACE2, 0.00207 µM in assay [1], 0.00121 µM at human recombinant BACE1 and 1150 µM on Recombinant Cat D.
The like results for `[2H]C([2H])([2H])OC[C@]12C[C@H]1[C@@](C)(c1cc(NC(=O)c3cnc(OCC#C)cn3)cnc1F)N=C(N)S2` [Example 851, N-(5-((1S,5S,6S)-3-amino-5-methyl-1-(((~2~H_3_)methyloxy)methyl)-2-thia-4-azabicyclo[4.1.0]hept-3-en-5-yl)-6-fluoro-3-pyridinyl)-5-(2-propyn-1-yloxy)-2-pyrazinecarboxamide] were, in that order, 0.0184 µM, 0.000624 µM, 0.000574 µM and 468 µM.
`[2H]C([2H])([2H])OC[C@]12C[C@H]1[C@@](C)(c1cc(Nc3ncnc4cc(Cl)cnc34)cnc1F)N=C(N)S2` [Example 852, N-(5-((1S,5S,6S)-3-amino-5-methyl-1-(((~2~H_3_)methyloxy)methyl)-2-thia-4-azabicyclo[4.1.0]hept-3-en-5yl)-6-fluoro-3-pyridinyl)-7-chloropyrido[3,2-d]pyrimidin-4-amine]: the concentration for half-maximal inhibition (IC50) at human recombinant BACE2 came to 0.00758 µM; in assay [1], 0.0101 µM; on human recombinant BACE1, 0.0127 µM; at Recombinant Cat D, 1680 µM.
The matching figures for `[2H]C([2H])([2H])OC[C@]12C[C@H]1[C@@](C)(c1cc(Nc3nccc4nc(OCC#C)cnc34)cnc1F)N=C(N)S2` [Example 853, N-(5-((1S,5S,6S)-3-amino-5-methyl-1-(((~2~H_3_)methyloxy)methyl)-2-thia-4-azabicyclo[4.1.0]hept-3-en-5-yl)-6-fluoro-3-pyridinyl)-2-(2-propyn-1-yloxy)pyrido[3,4-b]pyrazin-5-amine]: 0.0244 µM, 0.000961 µM, 0.000878 µM and 791 µM.
For the compound `[2H]C([2H])([2H])OC[C@]12C[C@H]1[C@@](C)(c1cc(Nc3nccc4nc(OC([2H])([2H])C#C)cnc34)cnc1F)N=C(N)S2` [Example 854, N-(5-((1S,5S,6S)-3-amino-5-methyl-1-(((~2~H_3_)methyloxy)methyl)-2-thia-4-azabicyclo[4.1.0]hept-3-en-5-yl)-6-fluoro-3-pyridinyl)-2-((1,1-~2~H_2_)-2-propyn-1-yloxy)pyrido[3,4-b]pyrazin-5-amine], the IC50 at human recombinant BACE2 stood at 0.0383 µM; in assay [1], 0.00134 µM; on human recombinant BACE1 it was 0.00144 µM; at Recombinant Cat D, 1240 µM.
The matching figures for `COC(=O)c1cc(NC(=O)c2ccc(Cl)cn2)cc([C@@]2(C)N=C(N)S[C@@]3(C(=O)OC)C[C@H]32)c1F` [Example 855, (1S,5S,6S)-methyl 3-amino-5-(5-(5-chloropicolinamido)-2-fluoro-3-(methoxycarbonyl)phenyl)-5-methyl-2-thia-4-azabicyclo[4.1.0]hept-3-ene-1-carboxylate]: 0.0224 µM, 0.294 µM, 0.198 µM and above 400 µM.
Consider `C#CCOc1cnc2c(Nc3cc(C(=O)OC)c(F)c([C@@]4(C)N=C(N)S[C@@]5(C(=O)OC)C[C@H]54)c3)nccc2n1` [Example 856, (1S,5S,6S)-methyl 3-amino-5-(2-fluoro-3-(methoxycarbonyl)-5-((2-(prop-2-yn-1-yloxy)pyrido[3,4-b]pyrazin-5-yl)amino)phenyl)-5-methyl-2-thia-4-azabicyclo[4.1.0]hept-3-ene-1-carboxylate], for which the half-maximal inhibitory concentration (IC50) at human recombinant BACE2 came out at 0.657 µM; in assay [1], 0.249 µM; at human recombinant BACE1, 0.071 µM; at Recombinant Cat D, 116 µM.
The like results for `C#CCOc1cnc2c(Nc3cc(C(=O)OC)c(F)c([C@@]4(C)N=C(N)S[C@@]5(CO)C[C@H]54)c3)nccc2n1` [Example 857, methyl 3-((1S,5S,6S)-3-amino-1-(hydroxymethyl)-5-methyl-2-thia-4-azabicyclo[4.1.0]hept-3-en-5-yl)-2-fluoro-5-((2-(prop-2-yn-1-yloxy)pyrido[3,4-b]pyrazin-5-yl)amino)benzoate] were, in that order, 0.346 µM, 0.0156 µM, 0.0678 µM and 2520 µM.
On to `C[C@]1(c2cc(NC(=O)c3ccc(Cl)cn3)cc(CO)c2F)N=C(N)S[C@@]2(CO)C[C@H]21` [Example 858, N-(3-((1S,5S,6S)-3-amino-1-(hydroxymethyl)-5-methyl-2-thia-4-azabicyclo[4.1.0]hept-3-en-5-yl)-4-fluoro-5-(hydroxymethyl)phenyl)-5-chloropicolinamide], for which the half-maximal inhibitory concentration (IC50) was below 0.00203 µM at human recombinant BACE2, 0.000487 µM in assay [1], 0.00085 µM on human recombinant BACE1 and above 400 µM on Recombinant Cat D.
The like results for `C#CCOc1cnc(C(=O)Nc2cnc(F)c([C@@]3(C)N=C(N)S[C@@]4(COC)C[C@H]43)c2)cn1` [Example 859, N-(5-((1S,5S,6S)-3-amino-1-(methoxymethyl)-5-methyl-2-thia-4-azabicyclo[4.1.0]hept-3-en-5-yl)-6-fluoro-3-pyridinyl)-5-(2-propyn-1-yloxy)-2-pyrazinecarboxamide] were, in that order, 0.0194 µM, 0.000762 µM, 0.000799 µM and 590 µM.

These data come from patent publication US20160046618A1, “Cyclopropyl Fused Thiazin-2-Amine Compounds as Beta-Secretase Inhibitors and Methods of Use” (AMGEN INC., priority 2014, published 2016).
